From PMC9000336, “Development of Bicyclo[3.1.0]hexane-Based A3 Receptor Ligands: Closing the Gaps in the Structure–Affinity Relationships” (Molecules, 2022) come the findings set out here.

Like-named read-outs stand apart in the source and are kept apart here.

The experiment deals with T1, hA2B receptor (Homo sapiens, UniProt P29275).
T1 construct: expressed in transfected cells; host or cells: CHO-spap cells (CHO-spap-hA2BR), from S. J. Dowell (GlaxoSmithKline); membrane preparation
T1 sequence (P29275 1-332): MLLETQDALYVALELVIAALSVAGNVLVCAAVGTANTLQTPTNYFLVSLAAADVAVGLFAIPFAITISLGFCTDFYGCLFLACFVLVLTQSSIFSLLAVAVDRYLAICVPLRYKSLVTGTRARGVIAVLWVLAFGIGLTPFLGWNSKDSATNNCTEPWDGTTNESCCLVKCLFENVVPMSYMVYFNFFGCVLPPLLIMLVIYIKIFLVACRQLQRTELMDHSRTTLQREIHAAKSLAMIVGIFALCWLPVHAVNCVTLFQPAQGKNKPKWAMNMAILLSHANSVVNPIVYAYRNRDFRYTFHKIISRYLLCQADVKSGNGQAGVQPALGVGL
Briefly: Radioligand displacement assay, human adenosine A2B receptor ([3H]PSB-603, CHO-spap-hA2BR membranes). Format: binding. The procedure: Human embryonic kidney 293 cells stably expressing the human adenosine A2A receptor (HEK293hA2AR) were kindly provided by Dr. J. Wang (Biogen/IDEC, Cambridge, MA, USA), CHO-spap cells stably expressing the wild-type (WT) hA2B receptor (CHO-spap-hA2BR) were kindly provided by S. J. Dowell (GlaxoSmithKline, Brentfort, UK).
Chinese hamster ovary cells stably expressing the […] and a reporter gene, the secreted placental alkaline phosphatase, (CHO-spap-hA2BR) were grown in DMEM and Ham’s F12 medium (1:1) supplemented with 10% (v/v) newborn calf serum, 100 µg/mL streptomycin, 100 IU/mL penicillin, 1 mg/mL G418, and 0.4 mg/mL hygromycin at 37 °C and 5% CO2.
All cells were grown to 80–90% confluency and detached from plates by scraping them into 5 mL phosphate-buffered saline. Detached cells were collected and centrifuged at 200 g for 5 min. Pellets derived from 100 15 cm Ø plates were pooled and resuspended in 70 mL of ice-cold 50 mM tris(hydroxymethyl)aminomethane (Tris)-HCl buffer, pH 7.4. A Heidolph Diax 900 homogenizer was used to homogenize the cell suspension. Membranes and the cytosolic fraction were separated by centrifugation at 100,000 g in a Beckman Optima LE-80 K ultracentrifuge (Beckman Coulter, Fullerton, CA, USA) at 4 °C for 20 min. The pellet was resuspended in 35 mL of the Tris-HCl buffer, and the homogenization and centrifugation steps were repeated. Tris-HCl buffer (25 mL) was used to resuspend the pellet, and adenosine deaminase (ADA) was added (0.8 U/mL) to break down endogenous adenosine. Membranes were stored in 250 µL and 500 µL aliquots at −80 °C. Total protein concentrations were measured using the bicinchoninic acid (BCA) method.
A2B Receptor: Membrane aliquots containing 30 µg (CHO-spap-hA2BR) total protein were incubated in a total volume of 100 µL assay buffer (0.1% CHAPS in 50 mM TrisHCl, pH 7.4) at 25 °C for 2 h. […] Nonspecific binding was determined in the presence of 10 µM ZM241385. Incubations were terminated by rapid vacuum filtration to separate the bound and free radioligand through prewetted 96-well GF/B filter plates using a PerkinElmer Filtermate-harvester (Perkin Elmer, Groningen, the Netherlands). Filters were subsequently washed 12 times with ice-cold 0.1% BSA in 50 mM Tris-HCl, pH 7.4.
The plates of all four adenosine receptor assays were dried at 55 °C after which MicroscintTM-20-cocktail was added (Perkin Elmer, Groningen, The Netherlands).
All experimental data were analyzed using the non-linear regression curve fitting program GraphPad Prism 7.0 (GraphPad Software Inc., San Diego, CA, USA). IC50 values obtained from competition displacement binding data were converted into Ki values using the Cheng–Prusoff equation.
On the technique in general: Loss of bound radioactivity is the signal in a displacement assay; it reports binding, not function.

[1] abbreviates: n = 3, [3H]PSB-603, read-out: A2B Ki ± SEM.

In the case of `COC(=O)CCc1cn(C[C@@]23C[C@@H]2[C@@H](n2cnc4c(N)nc(SC)nc42)[C@H](O)[C@@H]3O)nn1` [Compound 42, Methyl 3-(1-{[(1R,2R,3S,4R,5S)-4-(6-amino-2-methylthio-9H-purin-9-yl)-2,3-dihydroxybicyclo[3.1.0]hex-1-yl]methyl}-1H-1,2,3-triazol-4-yl)propanoate], the Ki under setting [1] is > 10 µM.

For `OC[C@@]12C[C@@H]1[C@@H](n1cnc3c(NCc4ccccc4)cc(Cl)nc31)[C@H](O)[C@@H]2O` [Compound 13, (1R,2R,3S,4R,5S)-4-[7-(Benzylamino)-5-chloro-3H-imidazo[4,5-b]pyridin-3-yl]-1-(hydroxymethyl)bicyclo[3.1.0]hexane-2,3-diol], the inhibition constant Ki under setting [1] was > 10 µM.

Regarding `CSc1cc(NCc2ccccc2)c2ncn([C@H]3[C@H](O)[C@H](O)[C@]4(CO)C[C@H]34)c2n1` [Compound 14, (1R,2R,3S,4R,5S)-4-[7-(Benzylamino)-5-methylthio-3H-imidazo[4,5-b]pyridin-3-yl]-1-(hydroxymethyl)bicyclo[3.1.0]hexane-2,3-diol], the Ki under setting [1] is > 10 µM.

For the molecule `Nc1ncnc2c1ncn2[C@H]1[C@H](O)[C@H](O)[C@]2(CO)C[C@H]12` [Compound 36, (N)-methanocarba adenosine], the “affinity at the A2B subtype” value is reported as “no affinity”. Also, the inhibitory constant (Ki) under setting [1] was > 10 µM.

For the molecule `COC(=O)Cc1cn(C[C@@]23C[C@@H]2[C@@H](n2cnc4c(N)nc(SC)nc42)[C@H](O)[C@@H]3O)nn1` [Compound 41, Methyl 2-(1-{[(1R,2R,3S,4R,5S)-4-(6-amino-2-methylthio-9H-purin-9-yl)-2,3-dihydroxybicyclo[3.1.0]hex-1-yl]methyl}-1H-1,2,3-triazol-4-yl)acetate], under “footnote a: tested at 1 µM, n = 3, read-out: A2B Ki (bound, footnote a)”, the Ki is > 1 µM.

With `CSc1cc(N)c2ncn([C@H]3[C@H](O)[C@H](O)[C@]4(CO)C[C@H]34)c2n1` [Compound 17, (1R,2R,3S,4R,5S)-4-(7-Amino-5-methylthio-3H-imidazo[4,5-b]pyridin-3-yl)-1-(hydroxymethyl)bicyclo[3.1.0]hexane-2,3-diol], under setting [1], the inhibition constant (Ki) is > 10 µM.

For `OC[C@@]12C[C@@H]1[C@@H](n1cnc3c(Cl)cc(Cl)nc31)[C@H](O)[C@@H]2O` [Compound 12, (1R,2R,3S,4R,5S)-4-(5,7-Dichloro-3H-imidazo[4,5-b]pyridin-3-yl)-1-(hydroxymethyl)bicyclo[3.1.0]hexane-2,3-diol], the inhibition constant (Ki) under setting [1] was > 10 µM.

For the molecule `Nc1cc(Cl)nc2c1ncn2[C@H]1[C@H](O)[C@H](O)[C@]2(CO)C[C@H]12` [Compound 16, (1R,2R,3S,4R,5S)-4-(7-Amino-5-chloro-3H-imidazo[4,5-b]pyridin-3-yl)-1-(hydroxymethyl)bicyclo[3.1.0]hexane-2,3-diol], the inhibitory constant (Ki) under setting [1] is > 10 µM.

`CSc1nc(N(Cc2ccccc2)Cc2ccccc2)c2ncn([C@H]3[C@H](O)[C@H](O)[C@]4(CO)C[C@H]34)c2n1` [Compound 30, (1R,2R,3S,4R,5S)-4-[6-(Dibenzylamino)-2-methylthio-9H-purin-9-yl]-1-(hydroxymethyl)bicyclo[3.1.0]hexane-2,3-diol]: under setting [1], the Ki is > 10 µM.

Take `OC[C@@]12C[C@@H]1[C@@H](n1cnc3c(N(Cc4ccccc4)Cc4ccccc4)ncnc31)[C@H](O)[C@@H]2O` [Compound 26, (1R,2R,3S,4R,5S)-4-[6-(Dibenzylamino)-9H-purin-9-yl]-1-(hydroxymethyl)bicyclo[3.1.0]hexane-2,3-diol]: the “A2B displacement at 10 µM” value (test compound 10 µM, n = 3) is given as 12%.

As for `COC(=O)c1cn(C[C@@]23C[C@@H]2[C@@H](n2cnc4c(N)nc(SC)nc42)[C@H](O)[C@@H]3O)nn1` [Compound 40, Methyl 1-{[(1R,2R,3S,4R,5S)-4-(6-amino-2-methylthio-9H-purin-9-yl)-2,3-dihydroxybicyclo[3.1.0]hex-1-yl]methyl}-1H-1,2,3-triazole-4-carboxylate], under setting [1], the Ki was > 10 µM.

As to `CSc1nc(N(Cc2ccccc2)Cc2ccccc2)c2ncn([C@H]3[C@H](O)[C@H](O)[C@]4(CCl)C[C@H]34)c2n1` [Compound 31, (1S,2R,3S,4R,5S)-4-[6-(Dibenzylamino)-2-methylthio-9H-purin-9-yl]-1-(chloromethyl)bicyclo[3.1.0]hexane-2,3-diol], the inhibition constant Ki under setting [1] is > 10 µM.

For orientation: Ki means a measure of affinity in units of concentration, obtained from inhibition or displacement.
